Reference: patent publication US5670479A, “α-ketoamide derivatives as inhibitors of thrombosis” (Corvas International, Inc., priority 1994, dated 1997)

What was measured:
[1] = molecular target: T1, a-thrombin (Homo sapiens, UniProt P00734); test: Amidolytic thrombin assay (inhibitor constant Ki, Ki*); format: biochemical; design: Purified human a-thrombin; purchased Enzyme Research Laboratories, Inc; conditions: human a-thrombin 0.25 nM, Pefachrome t-PA substrate, HBSA pH 7.5
Protocol: The ability of the compounds of the present invention to act as inhibitors of thrombin catalytic activity in comparison to Hirulog-1 (compound 25) was assessed by determining their inhibition constant, Ki.
Enzyme activity was determined using the chromogenic substrate Pefachrome t-PA (CH3 SO2 -D-hexahydrotyrosine-glycyl-L-arginine-p-nitroaniline, obtained from Pentapharm Ltd.). The substrate was reconstituted in deionized water prior to use.
Ki values were determined for test compounds using the following methodologies:
The assay was conducted by combining in appropriate wells of a Corning microtiter plate, […], […] of the test compound at a specified concentration diluted in HBSA (or HBSA alone for Vo(uninhibited velocity) measurement), and 50 mL of the chromogenic substrate diluted in HBSA. […] Velocities of Pefachrome-tPA substrate hydrolysis which occurred over a 40 minute time period was measured by the change in absorbance at 405 nm using a Thermo Max® Kinetic Microplate Reader. […]
The initial velocity of Pefachrome t-PA hydrolysis was measured by the change in absorbance at 405 nm using a Thermo Max® Kinetic Microplate Reader over a 2 minute period in which less than 5% of the added substrate was utilized. […]
Ki* was determined by fitting Vs/Vo verses [I] using Equation 1 by non-linear regression analysis. […]

[2] = molecular target: T1, a-thrombin; test: Inhibition of fluid-phase thrombin (FPA generation in citrated plasma); format: biochemical; design: Purified human a-thrombin; purchased Enzyme Research Laboratories, Inc; conditions: 60 min, 37° C., compound 8 18.75 nM, Hirulog-1 500 nM, rHIR 4 nM, FIG. 5A
Protocol: I. et.al. J. Clin. Invest., 86: 385-391 (1990). Human a-thrombin (2 U/ml) was incubated with citrated plasma for 60 minutes at 37° C. in the absence or presence of varying concentrations of each of the inhibitors. At timed intervals, 100 μl aliquots were removed and the reaction was terminated by the addition of […] (5 μM, final concentration). Unreacted fibrinogen was then precipitated with ethanol, and the ethanol supernatants were assayed for fibrinopeptide A (FPA). Thrombin addition to plasma results in rapid FPA generation which reaches a plateau in minutes as the thrombin is complexed and inactivated by fluid-phase antiproteases.(e.g. antithrombin III).

[3] = system: washed human platelets; test: Thrombin-induced aggregation in washed human platelets; format: cell-based
Protocol: Washed human platelets were prepared from freshly isolated venous blood obtained from normal, healthy volunteers who had not taken any medication which might affect platelet function, according to the procedure of Connolly, T. M. et al., J. Biol. Chem., 267: 6893. (1992). Inhibitors, were added in a volume of […] to […] of prewarmed washed platelets in a siliconized glass cuvette (Chronolog Corp., Hayertown, Pa.) followed by […] of 0.25M CaCl2. The rate and extent of aggregation were measured for 5-15 minutes by the change in light transmission in a stirred cuvette, following the addition of […] of a-thrombin (final concentration 2 nM), using a Chronolog Whole Blood Aggregometer equipped with the Aggro/Link data acquisition system (Chronolog Corp., Hayertown, Pa.).

[4] = molecular target: thrombin (Homo sapiens, UniProt P00734); conditions: reported in literature; cited from earlier work

**Q.** With “(D-Phe)-Pro-Arg-Pro-(Gly)4 -Asn-Gly-Asp-Phe-Glu-Glu-Ile-Pro-Glu-Glu-Tyr-Leu-OH [Hirulog-1]” as the substance, how does the Ki [1] read?
**A.** The Ki was 0.437 nM.

**Q.** What about the “inhibition of fluid-phase a-thrombin-mediated FPA generation” value [2] of the same substance?
**A.** The value was “only transient inhibition”.

**Q.** And the “persistence of inhibition of aggregation over the 15 minute assay” value ([3]; 20 nM (compound 8), same or higher concentrations (Hirulog-1), FIG. 4)?
**A.** The value was “did not cause sustained inhibition”.

**Q.** And the IC50 ([3]; a-thrombin 2 nM, extent of aggregation over 1 minute, mean ± SD of three)?
**A.** Its IC50 is 16 ± 3 nM.

**Q.** What about the Ki [4] of the same substance?
**A.** The Ki was 2.56 nM.
